Laboratory results published in article PMC6373163, “Potential in vitro anti-allergic, anti-inflammatory and cytotoxic activities of ethanolic extract of Baliospermum montanum root, its major components and a validated HPLC method” (BMC Complementary and Alternative Medicine, 2019).
Converted amounts (≈) assume the structure as drawn.

Legend:
[1] = tested on: β-hexosaminidase released from RBL-2H3 cells; assay: Inhibition of β-hexosaminidase release from IgE-sensitized, DNP-BSA-stimulated RBL-2H3 cells (anti-allergic activity); assay type: cell-based, rat; conditions: for inhibition at 1 µg/mL / inhibition at 10 µg/mL / inhibition at 50 µg/mL / IC50 / inhibition at 0.1 µg/mL: Rattus norvegicus, mean ± SD, triplicate; for inhibition at 1 µg/mL: 1 μg/ml; for inhibition at 10 µg/mL: 10 μg/ml; for inhibition at 50 µg/mL: 50 μg/ml; for inhibition at 0.1 µg/mL: 0.1 μg/ml
Procedure: Inhibitory activity on β-hexosaminidase released from rat basophilic leukemia cells (RBL-2H3) was evaluated following the report of Juckmetha and co-workers. RBL-2H3 cells were cultured in MEM supplemented with 15% FBS, penicillin/streptomycin (each 100 μg/mL). Cells were seeded in 24-well plate with the concentration of 5 × 10^5 cells/well and incubated in 5% CO2 at 37 °C for 1.5 h. RBL-2H3 were sensitized with 0.45 μg/mL of Anti-DNP IgE and incubated at 37 °C in 5% CO2 for 24 h. Cells were then washed with 400 μL of Siraganian buffer (Buffer A) [119 mM NaCl, 5 mM KCl, 5.6 mM glucose, 0.4 mM MgCl2, 1 mM CaCl2, 25 mM piperazine-N,N′-bis (2-ethanesulfonic acid) (PIPES), 0.1% BSA, and 40 mM NaOH, pH 7.2]. Subsequently, 160 μL of buffer A was added into the wells and incubated at 37 °C for 10 min. The stock solution of the sample was diluted in DMSO and the working samples were diluted with buffer A. The concentrations of the working samples were 0.1 μg/mL, 1 μg/mL, 10 μg/mL and 50 μg/mL. The serially diluted samples (20 μL) were added to each well and incubated for 10 min. The reaction of antigen-antibody was obtained by adding 20 μL of antigen (DNP-BSA) to produce a final concentration of 10 μg/mL and incubated at 37 °C for 20 min. The amount of β-hexosaminidase released from the degranulation was determined by adding 50 μL of the substrate, PNAG (1 mM in 0.1 M citrate buffer, pH 4.5). The enzyme reaction was stopped by adding 200 μL of 0.1 M carbonate buffer pH 10.0. The product of enzyme reaction, p-nitrophenol, was analyzed by measuring absorbance at wavelength 405 nm. Chlorpheniramine was used as positive control. The percentage of inhibition was calculated by the following equation. Inhibition%=1−T−B−N/C−B−N×100
Where • C = Optical density of control: [+] DNP-BSA, [−] Test sample; • T = Optical density of test sample: [+] DNP-BSA, [+] Test sample; • B = Optical density of blank: […], [+] Test sample; • N = Optical density of normal: [−] DNP-BSA, [−] Test sample.

[2] = tested on: β-hexosaminidase released from RBL-2H3 cells; assay: as above; assay type: cell-based; conditions: Rattus norvegicus, 100 μg/ml, mean ± SD, triplicate
[3] = Viability of LPS-treated RAW 264.7 cells (MTT); assay type: cell-based, murine; conditions: mouse
Procedure: The viability of the LPS treated RAW 264.7 cells were colorimetrically determined by using 3-(4, 5-dimethyl-2-thiazolyl)-2, 5-diphenyl-2H-tetrazolium bromide (MTT) method. MTT solution (10 μL) was added into each well and the plate was incubated for 2 h. The remained formazan crystal in each well, after removing the medium, was dissolved by 0.04 M HCl in isopropanol (100 μL). The optical density was measured by using microplate reader at wavelength 570 nm.

[4] = Cytotoxic activity by sulforhodamine B (SRB) assay, normal cells HaCaT; assay type: cell-based; conditions: human, 72 h exposure, 72 h recovery
Procedure: (§1) The crude extracts and isolated compounds were evaluated for cytotoxic activity by using sulforhodamine B (SRB) assay against two cancerous liver cells (HepG2 and KKU-M156) and a normal cells (HaCaT). The SRB protocol has been described previously. HepG2 was cultured in MEM; KKU-M156 was cultured in HAM F-12 media and HaCaT was cultured in DMEM. All cultured media were supplemented with 10% FBS, penicillin/streptomycin (each 100 units/mL). All cells were incubated in 5% CO2 at 37 °C with 95% humidity. Based on the growth curve, each cell was seeded into 96-well plate (100 μL per well) with optimal density (HepG2: 3 × 10^3 cells per well, KKU-M156: 2 × 10^3 cells per well and HaCaT: 8 × 10^3 cells per well). Seeded cells were incubated at 37 °C in a 5% CO2 with 95% humidity for 24 h. Cells were then treated with 100 μL of different concentrations of sample solution (0.1 μg/mL, 1 μg/mL, 10 μg/mL and 50 μg/mL). DMSO at the same concentration as the sample (2% v/v) was used as the control solvent. Cell cultures were incubated for the exposure time of 72 h. After the exposure time, the medium was removed and the plate was washed with 200 μL phosphate buffer saline (PBS) and 200 μL fresh medium was added into each well. The plates were then incubated for 72 h for the recovery period. The cells were then fixed by adding 100 μL of 40% trichloroacetic acid and the plates left at 4 °C for 45 min. After the plates were washed, 50 μL of SRB solution (0.4% w/v in acetic acid) was added into each well and the cells were allowed to be strained for 30 min. The stained cells were dissolved by using 100 μL of 10 mM Tris base pH 10.5. The %inhibition was calculated using the following equation. Inhibition%=ODcontrol‐ODsample/ODcontrol×100

[5] = tested on: KKU-M156; assay: Cytotoxic activity by sulforhodamine B (SRB) assay, KKU-M156; assay type: cell-based; conditions: for Selective index: HaCaT versus KKU-M156; for IC50: KKU-M156, SRB, 72 h exposure, 72 h recovery
Procedure: as §1

[6] = tested on: HepG2; assay: Cytotoxic activity by sulforhodamine B (SRB) assay, HepG2; assay type: cell-based; conditions: for Selective index: HaCaT versus HepG2; for IC50: Homo sapiens, HepG2, SRB, 72 h exposure, 72 h recovery
Procedure: as §1

[7] = tested on: NO production of LPS-induced RAW 264.7 cells; assay: Inhibition of NO production in LPS-induced RAW 264.7 cells (Griess reagent); assay type: cell-based, murine; conditions: Mus musculus; for inhibition at 0.1 µg/mL: RAW264.7, 0.1 μg/mL; for inhibition at 0.1 µg/mL / inhibition at 1 µg/mL / inhibition at 10 µg/mL / inhibition at 50 µg/mL: mean ± SD, read-out: %Inhibition of LPS-induced nitric oxide release; for inhibition at 1 µg/mL: RAW264.7, 1 μg/mL; for inhibition at 10 µg/mL: RAW264.7, 10 μg/mL; for inhibition at 50 µg/mL: RAW264.7, 50 μg/mL; for IC50: RAW264.7, mean ± SD, triplicate, read-out: IC50, LPS-induced nitric oxide release
Procedure: The inhibitory activity of crude extracts and isolated compounds on NO production of LPS-induced RAW 264.7 cells was investigated according to a previously reported method. RAW 264.7 cells were cultured in RPMI medium supplemented with 10% FBS, penicillin/streptomycin (each 100 units/mL) and incubated at 37 °C in 5% CO2 with 95% humidity. The cells were seeded into 96-well plate (1 × 10^5 cells per well) and incubated for 24 h. Subsequently, the cells were induced by LPS at the final concentration of 2 ng/mL and the serially diluted samples (0.1 μg/mL, 1 μg/mL, 10 μg/mL and 50 μg/mL) were added. The plate was incubated for 24 h before being tested for NO accumulation and cell viability. Prednisolone was used as positive control. The accumulated NO released from the LPS-induced RAW 264.7 cells was determined by using Griess’s reagent (1% sulfanilamide and 0.1% N-(1- naphthyl) ethylenediamine dihydrochloride in 2.5% phosphoric acid). The supernatant in each well (100 μL) was transferred to another 96-well plate and 100 μL of Griess’s reagent was added. The optical density of reaction was measured at 570 nm. The inhibitory activity (%) of NO production was calculated by the following equation and the IC50 values were calculated. Inhibition%=ODcontrol‐ODsample/ODcontrol×100

[8] = tested on: NO production of LPS-induced RAW 264.7 cells; assay: as above; assay type: cell-based, murine; conditions: Mus musculus, RAW264.7, 0.01 μg/mL, mean ± SD, read-out: %Inhibition of LPS-induced nitric oxide release

Row | Structure (SMILES) | IC50 [7] | inhibition at 1 µg/mL [1] | inhibition at 10 µg/mL [1] | inhibition at 50 µg/mL [1] | IC50 [1] | viability at 0.1 μg/mL [3] | viability at 1 μg/mL [3] | viability at 10 μg/mL [3] | viability at 50 μg/mL [3] | IC50 at 72 h [4] | Selective index [5] | IC50 [5] | Selective index [6] | IC50 [6] | inhibition at 0.1 µg/mL [1] | inhibition at 0.1 µg/mL [7] | inhibition at 1 µg/mL [7] | inhibition at 10 µg/mL [7] | inhibition at 50 µg/mL [7] | further results
1 | CN(C)CCC(c1ccc(Cl)cc1)c1ccccn1 (centres unmarked) [Chlorpheniramine, reference compound] |  | 14.9 ± 1.57% | 36.2 ± 2.84% | 71.4 ± 11% | 17.7 ± 1.61 µg/mL |  |  |  |  |  |  |  |  |  |  |  |  |  |  | inhibition at 100 µg/mL [2]: 81.3 ± 9.51%
2 | CCC(=O)c1ccc(OC)c(OC)c1 [Compound 1, 1-(3′,4′-dimethoxyphenyl) propan-1-one] | 40.4 ± 1.32 µg/mL (≈ 208 µM) | 4.84 ± 3.46% | 29.4 ± 2.01% | 77.7 ± 3.6% | 21.2 ± 2.01 µg/mL | 84.7% | 89.7% | 84.7% | 80.5% | > 100 µg/mL | > 1.71 | 58.3 ± 5.95 µg/mL (≈ 300 µM) | > 1.15 | 87.1 ± 1.36 µg/mL (≈ 448 µM) | -7.88 ± 3.01% | 2.66 ± 0.23% | 3.91 ± 3.03% | 14.4 ± 1.71% | 69.2 ± 2.49% | 
3 | CCC(=O)c1cc(OC)c(OC)cc1O [Compound 3, 1-(2′-hydroxy-4′, 5′-dimethoxyphenyl) propan-1-one] | > 50 µg/mL | 8.52 ± 2.93% | 17.4 ± 5.72% | 60.8 ± 8.98% | 44.4 ± 7.33 µg/mL | 102% | 97% | 97.3% | 91.6% | > 100 µg/mL | > 1.20 | 83.4 ± 5.2 µg/mL (≈ 397 µM) | > 1.11 | 90.3 ± 5.65 µg/mL (≈ 430 µM) | -14.2 ± 5.67% | -0.82 ± 3.26% | 2.64 ± 0.31% | 14.6 ± 3.43% | 34.4 ± 3.07% | anti-allergic activity (in words) ([1]; judged from IC50): moderate activity
4 | CC[C@]1(O)C[C@H]2CN(CCc3c([nH]c4ccccc34)[C@@](C(=O)OC)(c3cc4c(cc3OC)N(C=O)[C@H]3[C@@](O)(C(=O)OC)[C@H](OC(C)=O)[C@]5(CC)C=CCN6CC[C@]43[C@@H]65)C2)C1 [Vincristine, reference compound] |  |  |  |  |  |  |  |  |  | < 0.0001 µg/mL | < 0.033 | 0.003 ± 0.0015 µg/mL (≈ 0.00364 µM) | < 0.008 | 0.013 ± 0.0006 µg/mL (≈ 0.0158 µM) |  |  |  |  |  | 

Second part, led by results:

Row | IC50 [7] | Structure (SMILES) | inhibition at 1 µg/mL [1] | inhibition at 10 µg/mL [1] | inhibition at 50 µg/mL [1] | IC50 [1] | viability at 0.1 μg/mL [3] | viability at 1 μg/mL [3] | viability at 10 μg/mL [3] | viability at 50 μg/mL [3] | IC50 at 72 h [4] | Selective index [5] | IC50 [5] | Selective index [6] | IC50 [6] | inhibition at 0.1 µg/mL [1] | inhibition at 0.1 µg/mL [7] | inhibition at 1 µg/mL [7] | inhibition at 10 µg/mL [7] | inhibition at 50 µg/mL [7] | further results
5 | 33.6 ± 5.25 µg/mL (≈ 150 µM) | CCC(=O)c1cc(OC)c(OC)c(OC)c1 [Compound 2, 1-(3′,4′,5′-trimethoxyphenyl) propan-1-one] | 15.1 ± 1.71% | 30.4 ± 6.7% | 75.2 ± 6.47% | 26.2 ± 6.06 µg/mL | 94.5% | 88.8% | 80.8% | 90.4% | > 100 µg/mL | > 1.04 | 95.65 ± 0.48 µg/mL (≈ 427 µM) | > 2.10 | 47.6 ± 1.2 µg/mL (≈ 212 µM) | -5.37 ± 2.3% | 7.09 ± 6.86% | 11.1 ± 9.89% | 8.69 ± 6.93% | 58.8 ± 3.59% | 
6 | 0.11 ± 0.02 µg/mL (≈ 0.305 µM) | C[C@]12C=CC(=O)C=C1CC[C@@H]1[C@@H]2[C@@H](O)C[C@@]2(C)[C@H]1CC[C@]2(O)C(=O)CO [Prednisolone, reference compound] |  |  |  |  | 84.3% | 89.5% | 80.8% |  |  |  |  |  |  |  | 47.7 ± 6.24% | 69.9 ± 3.76% | 77.9 ± 8.12% |  | viability at 0.01 μg/mL ([3]; 0.01 μg/mL): 100%; inhibition at 0.01 µg/mL [8]: 19.8 ± 3.43%
